Test results reported in US20110212968A1, “PHENETHYLAMIDE DERIVATIVES AND THEIR HETEROCYCLIC ANALOGUES” (priority 2008, published 2011).

Experiments:
human orexin-2 receptor = target: T1, human orexin-2 receptor (Homo sapiens, UniProt O43614); experiment: Intracellular calcium measurement (FLIPR Tetra), orexin receptor antagonistic activity, OX2; format: cell-based; conditions: CHO cells expressing human orexin-2 receptor, 3 nM orexin-A
T1 construct: expressed in transfected cells; host or cells: CHO (Chinese hamster ovary) cells, kept under G418 selection
T1 sequence (O43614 1-444): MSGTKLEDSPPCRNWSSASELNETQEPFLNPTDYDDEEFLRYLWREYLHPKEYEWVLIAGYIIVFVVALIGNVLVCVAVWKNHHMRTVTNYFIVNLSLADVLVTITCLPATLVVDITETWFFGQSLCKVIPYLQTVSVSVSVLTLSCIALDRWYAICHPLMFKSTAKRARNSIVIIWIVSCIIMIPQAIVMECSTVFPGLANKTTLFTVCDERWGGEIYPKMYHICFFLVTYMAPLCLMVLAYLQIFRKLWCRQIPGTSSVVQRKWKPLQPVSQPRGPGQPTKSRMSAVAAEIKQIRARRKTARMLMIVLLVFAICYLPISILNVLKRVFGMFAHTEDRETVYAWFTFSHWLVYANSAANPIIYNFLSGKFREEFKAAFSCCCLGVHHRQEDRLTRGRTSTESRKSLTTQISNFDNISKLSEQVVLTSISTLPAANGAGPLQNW
Description: (§1) The orexin receptor antagonistic activity of the compounds of formula (I) is determined in accordance with one of the following experimental methods.
(§2) Chinese hamster ovary (CHO) cells expressing the human orexin-1 receptor and the human orexin-2 receptor, respectively, are grown in culture medium (Ham F-12 with L-Glutamine) containing 300 μg/ml G418, 100 U/ml penicillin, 100 μg/ml streptomycin and 10% heat inactivated fetal calf serum (FCS). The cells are seeded at 20,000 cells/well into 384-well black clear bottom sterile plates (Greiner). The seeded plates are incubated overnight at 37° C. in 5% CO2.
(§3) Human orexin-A as an agonist is prepared as 1 mM stock solution in MeOH:water (1:1), diluted in HBSS containing 0.1% bovine serum albumin (BSA), NaHCO3: 0.375 g/l and 20 mM HEPES for use in the assay at a final concentration of 3 nM. Antagonists are prepared as 10 mM stock solution in DMSO, then diluted in 384-well plates, first in DMSO, then in HBSS containing 0.1% bovine serum albumin (BSA), NaHCO3: 0.375 g/l and 20 mM HEPES.
(§4) On the day of the assay, 50 μl of staining buffer (HBSS containing 1% FCS, 20 mM HEPES, NaHCO3: 0.375 g/l, 5 mM probenecid (Sigma) and 3 μM of the fluorescent calcium indicator fluo-4 AM (1 mM stock solution in DMSO, containing 10% pluronic) is added to each well.
(§5) The 384-well cell-plates are incubated for 50 min at 37° C. in 5% CO2 followed by equilibration at RT for 30-120 min before measurement.
(§6) Within the Fluorescent Imaging Plate Reader (FLIPR Tetra, Molecular Devices), antagonists are added to the plate in a volume of 10 μl/well, incubated for 10 min and finally 10 μl/well of agonist is added. Fluorescence is measured for each well at 1 second intervals, and the height of each fluorescence peak is compared to the height of the fluorescence peak induced by 3 nM orexin-A with vehicle in place of antagonist. For each antagonist, the IC50 value (the concentration of compound needed to inhibit 50% of the agonistic response) is determined and may be normalized using the obtained IC50 value of a on-plate reference compound (normalized values in Table 1 are indicated by an asterisk *). With the FLIPR Tetra, two different conditions (conditions A and conditions B) were used, differing in adjustment of pipetting speed and cell splitting regime. The calculated IC50 values of the compounds may fluctuate depending on the daily cellular assay performance. Fluctuations of this kind are known to those skilled in the art.

human orexin-1 receptor = target: T2, human orexin-1 receptor (Homo sapiens, UniProt O43613); experiment: Intracellular calcium measurement (FLIPR Tetra), orexin receptor antagonistic activity, OX1; format: cell-based; conditions: CHO cells expressing human orexin-1 receptor, 3 nM orexin-A
T2 construct: expressed in transfected cells; host or cells: CHO (Chinese hamster ovary) cells, kept under G418 selection
T2 sequence (O43613 1-425): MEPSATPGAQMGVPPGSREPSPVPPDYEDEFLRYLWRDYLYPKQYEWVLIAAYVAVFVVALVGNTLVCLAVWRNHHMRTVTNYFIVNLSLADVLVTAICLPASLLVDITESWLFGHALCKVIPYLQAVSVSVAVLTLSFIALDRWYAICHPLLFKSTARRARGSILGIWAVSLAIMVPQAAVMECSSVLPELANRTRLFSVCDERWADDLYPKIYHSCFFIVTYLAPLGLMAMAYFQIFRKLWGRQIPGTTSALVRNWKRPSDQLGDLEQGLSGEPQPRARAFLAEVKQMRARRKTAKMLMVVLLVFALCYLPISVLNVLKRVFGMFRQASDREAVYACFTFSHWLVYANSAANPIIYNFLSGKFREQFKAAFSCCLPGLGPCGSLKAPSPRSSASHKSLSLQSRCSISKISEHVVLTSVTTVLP
Description: as §1, §2, §3, §4, §5, §6

[1] = conditions B, normalized (*) using IC50 of on-plate reference compound

Compound | IC50 (human orexin-2 receptor; conditions A) | IC50 (human orexin-1 receptor; conditions A) | further results
2-Methyl-5-m-tolyl-thiazole-4-carboxylic acid [2-cyclopropyl-amino-2-(3,4-dimethoxy-phenyl)-ethyl]-cyclopropylmethyl-amide [Example 432] |  |  | IC50 (human orexin-2 receptor; conditions B): 75 nM; IC50 (human orexin-1 receptor; conditions B): 234 nM
COc1ccc2[nH]cc(CC(C)N(CC3CC3)C(=O)c3nc(C)sc3-c3ccc(OC)nc3)c2c1 (racemic) [Example 385] |  |  | IC50 (human orexin-2 receptor; [1]): 25 nM; IC50 (human orexin-1 receptor; [1]): 23 nM
COc1ccc(CCN(CC2CC2)C(=O)c2nc(C)sc2-c2ccccc2)cc1OC [Example 18, 2-Methyl-5-phenyl-thiazole-4-carboxylic acid cyclopropylmethyl-[2-(3,4-dimethoxy-phenyl)-ethyl]-amide] | 4 nM | 925 nM | 
COc1ccc(CCN(CC2CC2)C(=O)c2nc(C)sc2-c2cccc(C#N)c2)cc1OC [Example 19, 5-(3-Cyano-phenyl)-2-methyl-thiazole-4-carboxylic acid cyclopropylmethyl-[2-(3,4-dimethoxy-phenyl)-ethyl]-amide] | 40 nM | 2200 nM | 
CCc1ccc(-c2sc(C)nc2C(=O)N(CCc2ccc(OC)c(OC)c2)CC2CC2)cc1 [Example 20, 5-(4-Ethyl-phenyl)-2-methyl-thiazole-4-carboxylic acid cyclopropylmethyl-[2-(3,4-dimethoxy-phenyl)-ethyl]-amide] | 15 nM | 2130 nM | 
COc1ccc(CCN(CC2CC2)C(=O)c2nc(C3CC3)sc2-c2ccccc2)cc1OC [Example 22, 2-Cyclopropyl-5-phenyl-thiazole-4-carboxylic acid cyclopropylmethyl-[2-(3,4-dimethoxy-phenyl)-ethyl]-amide] | 35 nM | 570 nM | 
COc1ccc(CCN(CC2CC2)C(=O)c2nc(N(C)C)sc2-c2cccc(C)c2)cc1OC [Example 30, 2-Dimethylamino-5-m-tolyl-thiazole-4-carboxylic acid cyclopropylmethyl-[2-(3,4-dimethoxy-phenyl)-ethyl]-amide] | 30 nM | 206 nM | 
COc1ccc(CCN(CC2CC2)C(=O)c2ncsc2-c2ccccc2F)cc1OC [Example 37, 5-(2-Fluoro-phenyl)-thiazole-4-carboxylic acid cyclopropylmethyl-[2-(3,4-dimethoxy-phenyl)-ethyl]-amide] | 5 nM | 2690 nM | 
COc1cccc(-c2oc(C)nc2C(=O)N(CCc2ccc(OC)c(OC)c2)CC2CC2)c1 [Example 42, 5-(3-Methoxy-phenyl)-2-methyl-oxazole-4-carboxylic acid cyclopropylmethyl-[2-(3,4-dimethoxy-phenyl)-ethyl]-amide] | 20 nM | 1010 nM | 
COc1ccc(CCN(CC2CC2)C(=O)c2nc(C)oc2-c2cccc(C(F)(F)F)c2)cc1OC [Example 43, 2-Methyl-5-(3-trifluoromethyl-phenyl)-oxazole-4-carboxylic acid cyclopropylmethyl-[2-(3,4-dimethoxy-phenyl)-ethyl]-amide] | 18 nM | 3120 nM | 
COc1ccc(CCN(CC2CC2)C(=O)c2sc(C)nc2-c2ccc(Cl)cc2)cc1OC [Example 48, 4-(4-Chloro-phenyl)-2-methyl-thiazole-5-carboxylic acid cyclopropylmethyl-[2-(3,4-dimethoxy-phenyl)-ethyl]-amide] | 17 nM | 4920 nM | 
COc1ccc(CCN(CC2CC2)C(=O)c2sc(C)nc2-c2ccc(C)cc2)cc1OC [Example 49, 2-Methyl-4-p-tolyl-thiazole-5-carboxylic acid cyclopropylmethyl-[2-(3,4-dimethoxy-phenyl)-ethyl]-amide] | 22 nM | 4230 nM | 
COc1ccc(CCN(CC2CC2)C(=O)c2sc(C)nc2-c2ccc(F)cc2)cc1OC [Example 50, 4-(4-Fluoro-phenyl)-2-methyl-thiazole-5-carboxylic acid cyclopropylmethyl-[2-(3,4-dimethoxy-phenyl)-ethyl]-amide] | 10 nM | > 10000 nM | 
COc1ccc(CCN(CC2CC2)C(=O)c2c(-c3ccccc3)nnc3ccccc23)cc1OC [Example 51, 3-Phenyl-cinnoline-4-carboxylic acid cyclopropylmethyl-[2-(3,4-dimethoxy-phenyl)-ethyl]-amide] | 34 nM | 1440 nM | 
COc1ccc(CCN(CC2CC2)C(=O)c2snnc2-c2ccccc2)cc1OC [Example 53, 4-Phenyl-[1,2,3]thiadiazole-5-carboxylic acid cyclopropylmethyl-[2-(3,4-dimethoxy-phenyl)-ethyl]-amide] | 81 nM | 8670 nM | 
COc1ccc(C(O)CN(CC2CC2)C(=O)c2nc(Br)sc2-c2cccc(C)c2)cc1OC (stereo not drawn) [Example 56, 2-Bromo-5-m-tolyl-thiazole-4-carboxylic acid cyclopropylmethyl-[2-(3,4-dimethoxy-phenyl)-2-hydroxy-ethyl]-amide] | 299 nM | 697 nM | 
COc1nc(C(=O)N(CC2CC2)CC(O)c2ccc(OC)c(OC)c2)c(-c2cccc(C)c2)s1 (stereo not drawn) [Example 78, 2-Methoxy-5-m-tolyl-thiazole-4-carboxylic acid cyclopropylmethyl-[2-(3,4-dimethoxy-phenyl)-2-hydroxy-ethyl]-amide] | 141 nM | 1120 nM | 
COc1ccc(C(O)CN(CC2CC2)C(=O)c2nc(N(C)C)sc2-c2cccc(C)c2)cc1OC (stereo not drawn) [Example 79, 2-Dimethylamino-5-m-tolyl-thiazole-4-carboxylic acid cyclopropylmethyl-[2-(3,4-dimethoxy-phenyl)-2-hydroxy-ethyl]-amide] | 158 nM | 276 nM | 
COc1ccc(C(O)CN(CC2CC2)C(=O)c2ncsc2-c2cccc(C(F)(F)F)c2)cc1OC (stereo not drawn) [Example 85, 5-(3-Trifluoromethyl-phenyl)-thiazole-4-carboxylic acid cyclopropylmethyl-[2-(3,4-dimethoxy-phenyl)-2-hydroxy-ethyl]-amide] | 551 nM | > 10000 nM | 
COc1ccc(C(O)CN(CC2CC2)C(=O)c2c(-c3ccccc3)nc3ccc(Cl)cn23)cc1OC (stereo not drawn) [Example 97, 6-Chloro-2-phenyl-imidazo[1,2-a]pyridine-3-carboxylic acid cyclopropylmethyl-[2-(3,4-dimethoxy-phenyl)-2-hydroxy-ethyl]-amide] | 263 nM | 4920 nM | 
COc1ccc(C(O)CN(CC2CC2)C(=O)c2nccnc2-c2ccccc2)cc1OC (stereo not drawn) [Example 99, 3-Phenyl-pyrazine-2-carboxylic acid cyclopropylmethyl-[2-(3,4-dimethoxy-phenyl)-2-hydroxy-ethyl]-amide] | 41 nM | > 10000 nM | 
